Source: publication doi:10.1101/2024.07.23.604814v1 (biorxiv, 2024)

Target: T1, mouse sEH (Mus musculus, UniProt P34914)
T1 sequence (P34914 1-554): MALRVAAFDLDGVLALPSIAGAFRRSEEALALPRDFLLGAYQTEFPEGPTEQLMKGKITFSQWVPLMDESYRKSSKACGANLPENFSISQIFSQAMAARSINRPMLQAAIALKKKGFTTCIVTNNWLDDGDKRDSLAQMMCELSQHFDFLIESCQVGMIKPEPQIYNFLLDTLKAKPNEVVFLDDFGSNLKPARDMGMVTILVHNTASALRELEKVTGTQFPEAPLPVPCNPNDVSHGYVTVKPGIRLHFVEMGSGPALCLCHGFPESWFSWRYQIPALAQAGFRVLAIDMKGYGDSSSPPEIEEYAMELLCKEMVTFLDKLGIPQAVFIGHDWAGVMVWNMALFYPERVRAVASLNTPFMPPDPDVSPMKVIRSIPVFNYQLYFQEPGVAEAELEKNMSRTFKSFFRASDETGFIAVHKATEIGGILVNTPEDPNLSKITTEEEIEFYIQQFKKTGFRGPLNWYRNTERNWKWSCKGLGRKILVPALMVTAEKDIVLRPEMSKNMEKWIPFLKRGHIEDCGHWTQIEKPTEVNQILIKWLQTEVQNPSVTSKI
Test: fluorogenic substrate hydrolase assay
Format: biochemical
Settings: recombinant purified enzyme, average of triplicates

SMILES | IC50
Cc1ccc(C(=O)NCCOCCOCCOCCOCCNC(=O)c2ccc(O[C@H]3CC[C@H](NC(=O)Nc4ccc(OC(F)(F)F)cc4)CC3)cc2)cc1N1CCC(=O)NC1=O [compound 5] | 9.3 nM
O=C(COc1ccc(N2CCC(=O)NC2=O)cc1)NCCOCCOCCOCCOCCNC(=O)c1ccc(O[C@H]2CC[C@H](NC(=O)Nc3ccc(OC(F)(F)F)cc3)CC2)cc1 [compound 4] | 6 nM
O=C1CCC(N2Cc3c(NCCOCCOCCOCCNC(=O)c4ccc(O[C@H]5CC[C@H](NC(=O)Nc6ccc(OC(F)(F)F)cc6)CC5)cc4)cccc3C2=O)C(=O)N1 (stereo partly drawn) [compound 1] | 1.6 nM
O=C1CCC(N2C(=O)c3cccc(NCCCCCC(=O)N4CCC(NC(=O)Nc5ccc(OC(F)(F)F)cc5)CC4)c3C2=O)C(=O)N1 (stereo not drawn) [compound 9] | 1.4 nM
O=C(COc1ccc(C2CCC(=O)NC2=O)cc1)NCCOCCOCCOCCOCCNC(=O)c1ccc(O[C@H]2CC[C@H](NC(=O)Nc3ccc(OC(F)(F)F)cc3)CC2)cc1 (stereo partly drawn) [compound 3] | 4.7 nM
O=C1CCC(N2C(=O)c3ccc(NCCOCCOCCOCCOCCNC(=O)c4ccc(O[C@H]5CC[C@H](NC(=O)Nc6ccc(OC(F)(F)F)cc6)CC5)cc4)cc3C2=O)C(=O)N1 (stereo partly drawn) [compound 2] | 0.64 nM
O=C(COc1cccc2c1C(=O)N(C1CCC(=O)NC1=O)C2=O)NCCOCCOCCOCCOCCNC(=O)c1ccc(O[C@H]2CC[C@H](NC(=O)Nc3ccc(OC(F)(F)F)cc3)CC2)cc1 (stereo partly drawn) [1a, compound 1a] | 4 nM
Cc1ncsc1-c1ccc(CNC(=O)[C@@H]2C[C@@H](O)CN2C(=O)[C@@H](NC(=O)CCCCCCC(=O)N2CCC(NC(=O)Nc3ccc(OC(F)(F)F)cc3)CC2)C(C)(C)C)cc1 [compound 12] | 3.1 nM
O=C1CCC(N2C(=O)c3cccc(NCCOCCOCCC(=O)N4CCC(NC(=O)Nc5ccc(OC(F)(F)F)cc5)CC4)c3C2=O)C(=O)N1 (stereo not drawn) [compound 10] | 3 nM
